Inhibition data for 44 molecules are collected here from paper PMC11129182, “Development of Inhibitors, Probes, and PROTAC Provides a Complete Toolbox to Study PARK7 in the Living Cell” (Journal of Medicinal Chemistry, 2024).

Each structure is given as a SMILES string. Read-outs that look alike come from different tables or passages of the source.

In this test the target is T1, PARK7 (Homo sapiens, UniProt Q99497).
T1 sequence (Q99497 1-189): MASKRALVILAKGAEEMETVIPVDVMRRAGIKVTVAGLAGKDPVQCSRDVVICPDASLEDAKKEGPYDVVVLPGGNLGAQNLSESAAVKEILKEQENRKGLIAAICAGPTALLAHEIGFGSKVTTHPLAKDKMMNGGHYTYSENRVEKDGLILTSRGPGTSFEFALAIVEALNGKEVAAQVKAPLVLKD
Put plainly: High-throughput screen of the crude compound library, PARK7 fluorescence polarization (FP) assay with FP reagent JYQ-107. It counts as biochemical. The following applies: 1.25 µM, crude compound library, read-out: HTS FP assay %Inhibition (1.25 µM).

Turning to `CCc1ccc(C(=O)N2CCC(C(=O)N3CCc4nc(NC(=O)[C@@H]5CCN(C#N)C5)sc4C3)CC2)o1` [compound 294], the inhibition at 1.25 µM came to 78.1%.
The same measure, in the same setting: with `Cc1nc(-c2ccsc2)ccc1C(=O)N1CCc2nc(NC(=O)[C@@H]3CCN(C#N)C3)sc2C1` [compound 296] the figure was 73.2%; with `CN(C)S(=O)(=O)c1ccc(N2CCCCC2)c(C(=O)N2CCc3nc(NC(=O)[C@@H]4CCN(C#N)C4)sc3C2)c1` [compound 297], 56.1%; with `N#CN1CC[C@@H](C(=O)Nc2nc3c(s2)CN(C(=O)c2cnc(Cc4ccc(F)cc4)s2)CC3)C1` [compound 298], 79.5%.
Consider `Cc1cc(C)cc(N(CCC(=O)N2CCc3nc(NC(=O)[C@@H]4CCN(C#N)C4)sc3C2)S(=O)(=O)c2ccc(Cl)cc2)c1` [compound 299], for which the inhibition at 1.25 µM was determined as 87.8%.
Turning to `N#CN1CC[C@@H](C(=O)Nc2nc3c(s2)CN(C(=O)c2csc(CCc4ccccc4)n2)CC3)C1` [compound 300], the inhibition at 1.25 µM came out at 86.1%.
As for `N#CN1CC[C@@H](C(=O)Nc2nc3c(s2)CN(C(=O)c2ccc(-c4nnco4)cc2)CC3)C1` [compound 301], the inhibition at 1.25 µM was 85.9%.
In the case of `N#CN1CC[C@@H](C(=O)Nc2nc3c(s2)CN(C(=O)c2ccccc2Cn2cncn2)CC3)C1` [compound 302], the inhibition at 1.25 µM was 66.3%.
As to `N#CN1CC[C@@H](C(=O)Nc2nc3c(s2)CN(C(=O)Cc2cnn(Cc4ccccc4)c2)CC3)C1` [compound 303], the inhibition at 1.25 µM was 80.8%.
For the molecule `CNS(=O)(=O)c1ccc(-c2ccc(Cl)c(Cl)c2)c(C(=O)N2CCc3nc(NC(=O)[C@@H]4CCN(C#N)C4)sc3C2)c1` [compound 305], the inhibition at 1.25 µM turned out to be 74.8%.
Regarding `N#CN1CC[C@@H](C(=O)Nc2nc3c(s2)CN(C(=O)Cc2csc(N4CCCC4=O)n2)CC3)C1` [compound 306], the inhibition at 1.25 µM stood at 76%.
Take `CC1CN(S(=O)(=O)c2ccc(C(=O)N3CCc4nc(NC(=O)[C@@H]5CCN(C#N)C5)sc4C3)cc2)CC(C)O1` (some centres unmarked) [compound 307]: the inhibition at 1.25 µM is 84.8%.
As for `Cc1ncsc1C(=O)N(C)c1ccccc1C(=O)N1CCc2nc(NC(=O)[C@@H]3CCN(C#N)C3)sc2C1` [compound 308], the inhibition at 1.25 µM was 64.6%.
Take `N#CN1CC[C@@H](C(=O)Nc2nc3c(s2)CN(C(=O)Cc2ccc(-n4cccc4)cc2)CC3)C1` [compound 309]: the inhibition at 1.25 µM is 80.2%.
Take `N#CN1CC[C@@H](C(=O)Nc2nc3c(s2)CN(C(=O)c2sccc2-n2cccc2)CC3)C1` [compound 310]: the inhibition at 1.25 µM was 85.3%.
As to `Cc1ccc(Oc2ccc(C(=O)N3CCc4nc(NC(=O)[C@@H]5CCN(C#N)C5)sc4C3)nc2)cc1` [compound 316], the inhibition at 1.25 µM stood at 85.7%.
Consider `N#CN1CC[C@@H](C(=O)Nc2nc3c(s2)CN(C(=O)c2ccc(OCc4cccnc4)cc2)CC3)C1` [compound 317], for which the inhibition at 1.25 µM was found to be 76.2%.
In the case of `CCn1cc([C@@H]2OCCC[C@H]2C(=O)N2CCc3nc(NC(=O)[C@@H]4CCN(C#N)C4)sc3C2)cn1` [compound 318], the inhibition at 1.25 µM was determined as 65.8%.
On the same count and under the same terms, with `N#CN1CC[C@@H](C(=O)Nc2nc3c(s2)CN(C(=O)c2ccc(C#Cc4ccccc4)cc2)CC3)C1` [compound 319] the figure was 75.9%.
As to `N#CN1CC[C@@H](C(=O)Nc2nc3c(s2)CN(C(=O)C2CCN2C2CCCC2)CC3)C1` (some centres unmarked) [compound 320], the inhibition at 1.25 µM amounted to 64.2%.
Take `N#CN1CC[C@@H](C(=O)Nc2nc3c(s2)CN(C(=O)c2cc(S(=O)(=O)Nc4nccs4)ccc2F)CC3)C1` [compound 321]: the inhibition at 1.25 µM worked out at 81.4%.
The same measure, in the same setting: the result for `N#CN1CC[C@@H](C(=O)Nc2nc3c(s2)CN(C(=O)C2CCCN2C(=O)C2CC2)CC3)C1` (some centres unmarked) [compound 322] reads 67.1%.
As for `N#CN1CC[C@@H](C(=O)Nc2nc3c(s2)CN(C(=O)C(OC2CCOCC2)c2ccccc2)CC3)C1` (some centres unmarked) [compound 323], the inhibition at 1.25 µM was 67.7%.
Take `N#CN1CC[C@@H](C(=O)Nc2nc3c(s2)CN(C(=O)CCn2ccc(C(=O)N4CCCC4)n2)CC3)C1` [compound 324]: the inhibition at 1.25 µM was determined as 64.4%.
For the molecule `N#CN1CC[C@@H](C(=O)Nc2nc3c(s2)CN(C(=O)c2ccccc2OCc2cccs2)CC3)C1` [compound 325], the inhibition at 1.25 µM amounted to 86.9%.
`N#CN1CC[C@@H](C(=O)Nc2nc3c(s2)CN(C(=O)c2c[nH]nc2-c2ccncc2)CC3)C1` [compound 326]: the inhibition at 1.25 µM was 69.7%.
Consider `COc1ccccc1N1CC(C(=O)N2CCc3nc(NC(=O)[C@@H]4CCN(C#N)C4)sc3C2)CCC1=O` (some centres unmarked) [compound 327], for which the inhibition at 1.25 µM stood at 70%.
Regarding `Cn1nccc1[C@@H]1C[C@H]1C(=O)N1CCc2nc(NC(=O)[C@@H]3CCN(C#N)C3)sc2C1` [compound 328], the inhibition at 1.25 µM is 79.7%.
As for `N#CN1CC[C@@H](C(=O)Nc2nc3c(s2)CN(C(=O)C2CCCN(c4ncccn4)C2)CC3)C1` (some centres unmarked) [compound 329], the inhibition at 1.25 µM stood at 71.1%.
On to `N#CN1CC[C@@H](C(=O)Nc2nc3c(s2)CN(C(=O)c2ccc(-c4ccncc4)[nH]c2=O)CC3)C1` [compound 330], for which the inhibition at 1.25 µM is 64.2%.
Turning to `Cc1onc(C(=O)N2CCc3nc(NC(=O)[C@@H]4CCN(C#N)C4)sc3C2)c1CN1CCN(C)CC1` [compound 331], the inhibition at 1.25 µM turned out to be 57.9%.
Regarding `N#CN1CC[C@@H](C(=O)Nc2nc3c(s2)CN(C(=O)c2cccn2Cc2ccccn2)CC3)C1` [compound 332], the inhibition at 1.25 µM worked out at 73.2%.
As to `N#CN1CC[C@@H](C(=O)Nc2nc3c(s2)CN(C(=O)c2cc(COc4ccc(F)cc4F)on2)CC3)C1` [compound 335], the inhibition at 1.25 µM was 79.4%.
Same read-out and setting: with `Cc1cc(C)n(-c2ccc(Cl)c(C(=O)N3CCc4nc(NC(=O)[C@@H]5CCN(C#N)C5)sc4C3)n2)n1` [compound 338] the figure was 68.4%.
For the molecule `N#CN1CC[C@@H](C(=O)Nc2nc3c(s2)CN(C(=O)Cc2csc(NS(=O)(=O)c4ccccc4)n2)CC3)C1` [compound 339], the inhibition at 1.25 µM is 82.7%.
With `N#CN1CC[C@@H](C(=O)Nc2nc3c(s2)CN(C(=O)Cc2coc(-c4cccs4)n2)CC3)C1` [compound 341], the inhibition at 1.25 µM worked out at 87%.
With `COc1ccc(S(=O)(=O)N(CCC(=O)N2CCc3nc(NC(=O)[C@@H]4CCN(C#N)C4)sc3C2)Cc2ccccc2)cc1` [compound 342], the inhibition at 1.25 µM is 85.1%.
As for `Cc1oc(-c2ccsc2)nc1CC(=O)N1CCc2nc(NC(=O)[C@@H]3CCN(C#N)C3)sc2C1` [compound 343], the inhibition at 1.25 µM came out at 74.3%.
For `Cc1ccc(C=CS(=O)(=O)N2CCC(C(=O)N3CCc4nc(NC(=O)[C@@H]5CCN(C#N)C5)sc4C3)CC2)cc1` [compound 344], the inhibition at 1.25 µM stood at 72%.
Turning to `N#CN1CC[C@@H](C(=O)Nc2nc3c(s2)CN(C(=O)Cc2csc(-c4ccccc4)n2)CC3)C1` [compound 346], the inhibition at 1.25 µM (FP reagent JYQ-107) was determined as 61.9%.
Turning to `Cc1ccccc1-n1cc(C(=O)N2CCc3nc(NC(=O)[C@@H]4CCN(C#N)C4)sc3C2)cn1` [compound 347], under “FP reagent JYQ-107”, the inhibition at 1.25 µM worked out at 87.5%.
Still for that read-out and setting: the result for `N#CN1CC[C@@H](C(=O)Nc2nc3c(s2)CN(C(=O)c2cccnc2-n2cccn2)CC3)C1` [compound 348] reads 71.9%.
As for `CCn1nc(C(C)C)cc1C(=O)N1CCCCC1C(=O)N1CCc2nc(NC(=O)[C@@H]3CCN(C#N)C3)sc2C1` (some centres unmarked) [compound 349], for the setting “FP reagent JYQ-107”, the inhibition at 1.25 µM was 59.6%.
Still for that read-out and setting: the result for `Cn1nc(C2CCC2)cc1C(=O)N1CCc2nc(NC(=O)[C@@H]3CCN(C#N)C3)sc2C1` [compound 350] reads 84.3%.
